Assay results reported in patent US10071989B2, “Substituted cinnamamide derivative, preparation method and use thereof” (TASLY PHARMACEUTICAL GROUP CO., LTD., priority 2011, dated 2018).
“Also recorded” adds a separate entry of the source. Where two headings read alike, the source gives them in different places.

Columns and labels:
C57BL/6 mice [1] = experiment: Number of autonomic activity of mice (YLS-1A autonomic activity recorder); assay type: in vivo; conditions: for Number of Autonomic activity (time): 10 mg/kg intragastric once daily, counted 30 min after administration at 6th day
Procedure: 110 mice were randomly selected to observe the number of their autonomic activity. The mice was placed into the YLS-1A multi-functional mice autonomic activity recorder, and after 1 min of adaption, the mice's activity was counted within a time period from the end of 1st min to 4th min. 96 mice with the number of autonomic activity between 70˜140 were screened out, divided randomly into 8 groups, and intragastrically administrated with the drug compounds at a dose listed in Table 1, one time daily for 7 days consecutively. The solvent control group was administrated with 2% Tween-80 aqueous solution in the same volume. All mice were placed into the autonomic activity recorder 30 min after administration at 6th day. After 1 min of adaption, the mice's activity was counted within a time period from the end of 1st min to 4th min.
(§1) 130 mice were randomly selected to observe the number of their autonomic activity. The method was the same with that of Experiment 1. 108 mice with the number of autonomic activity between 70˜140 were screened out, divided randomly into 9 groups, and intragastrically administrated with the drug compounds at a dose listed in Table 2, one time daily for 7 days consecutively. The solvent control group was administrated with 2% Tween-80 aqueous solution in the same volume. 30 min after administration at 6th day, the number of the autonomic activity of each mouse was observed. 30 min after administration at 7th day, the immobility time in tail suspension test was observed. The method was the same with that in Experiment 1.

C57BL/6 mice [2] = experiment: Depression model test of anti-blepharoptosis caused by reserpine (akinesia, blepharoptosis, shell temperature); assay type: in vivo; conditions: for Blepharoptosis, “out-of-circle” ratio and shell temperature after reserpine (effect in words): compared with the solvent control group; for Degree of eye-closure: score 0-4 one hour after reserpine; for responders at 10 mg/kg: Mus musculus, po, 1 h, one hour after reserpine, 7.5 cm circle, 15-second observation, read-out: “out-of-circle” ratio
Procedure: 120 male C57BL/6 mice were randomly selected to observe the number of their autonomic activity. The mice was placed into the YLS-1A multi-functional mice autonomic activity recorder, and after 1 min of adaption, the activity of the mice was counted within a time period from the end of 1st min to 4th min. 96 mice with the number of autonomic activity between 70˜140 were screened out, divided randomly into 8 groups, and intragastrically administrated with the drug compounds at a dose listed in Table 3, one time daily for 7 days consecutively. The solvent control group was administrated with 2% Tween-80 aqueous solution in the same volume. Except the normal control group, 30 min after the last administration, each group was injected intraperitoneally with reserpine at a dose of 4 mg/kg. Next, akinesia, blepharoptosis and shell temperature were observed.
I Akinesia: one hour after intraperitoneal injection of reserpine, the mice were placed at the center of a circle with a diameter of 7.5 cm for a 15-second observation to calculate the “out-of-circle” ratio.
II Blepharoptosis: one hour after intraperitoneal injection of reserpine, the eye closure of mice was observed and scored by the following standard: eyelids open, 0; eyelids ¼ closed, 1; eyelids 2/4 closed, 2; eyelids ¾ closed, 3; eyelids closed completely, 4.
III Shell temperature: two hours after intraperitoneal injection of reserpine, the shell temperature of the abdomen of the mice was measured.
120 C57BL/6 mice were randomly selected to observe the number of their autonomic activity. The method was the same with that of Experiment 1. 100 mice with the number of autonomic activity between 70˜140 were screened out, divided randomly into 10 groups, and intragastrically administrated with the drug compounds at a dose listed in Table 4, one time daily for 7 days consecutively. The mice in the normal group and the solvent control group were administrated with 2% Tween-80 aqueous solution in the same volume. Except the normal control group, 30 min after the last administration, each group was injected intraperitoneally with reserpine at a dose of 4 mg/kg. Next, akinesia, blepharoptosis and shell temperature were observed. Observation method was the same with that of Experiment 1.

[3] = Chinese patent application 201010169679.9; cited from earlier work
C57BL/6 mice [4] = experiment: "Acquired despair" depression model of tail suspension test in mice; assay type: in vivo; conditions: 10 mg/kg intragastric for 7 days; compared with the solvent control group
Procedure: 30 min after administration at 7th day, the mice was fixed on a sustainer with a rubberized cloth at 1 cm close to the end of the tail of mice, making the mice hanged upside down. The head of the mice was about 30 cm above the table and its sight was separated from the neighboring mouse with a plate. Usually, the mice might manage to struggle in hopes of overcoming the abnormal body position. […] The accumulated immobility time within 6 min of each mouse was observed, which was regarded as “despair time”.
as §1

C57BL/6 mice [5] = experiment: Forced swimming experiment in mice; assay type: in vivo
Procedure: After 1˜2 days of adaptive feed, 80 male C57BL/6 mice, aged 6˜8 weeks and weighing 18˜22 g, were placed into the YLS-1A multi-functional mice autonomic activity recorder. After 1 min of adaption, the activity of the mice was counted within a time period from the end of 1st min to 4th min. 60 mice with the number of autonomic activity between 70˜140 were screened out, divided randomly into 6 groups, and intragastrically administrated with the drug compounds at a dose listed in Table 5, one time daily for 7 days consecutively. The solvent control group was administrated with 2% Tween-80 aqueous solution in the same volume. After the administration at 6th day, the mice were placed into a cylindrical aquarium with a water depth of 10 cm and 25° C. to force the mice to swim. After 15 min, the mice were taken out, dried and returned to the cage. 24 hours later, 30 min after the last intragastrical administration, the mice were placed into a glass bottle with a diameter of 10 cm, a height of 30 cm and a water depth of 10 cm, and the temperature of the water in the bottle was at 25° C. The mice were separated with an opaque partition, so as not to influence each other. After 2 min of adaption, an accumulated immobility time from the end of 2nd min to 6th min was recorded.

mice = experiment: Anti-depression effect in the tested models (overall conclusion); assay type: in vivo; conditions: in the tested model at the tested dose
Source text: Based on the aforesaid experiments, the following conclusion can be drawn: • 1.

[6] = Experiment 2, 10 mg/kg intragastric 7 days, reserpine 4 mg/kg i.p., abdomen, two hours after reserpine, ±SD
[7] = Experiment 2, 10 mg/kg intragastric 7 days, reserpine 4 mg/kg i.p., ±SD
[8] = Experiment 2, 10 mg/kg intragastric 7 days, reserpine 4 mg/kg i.p.

Row | SMILES | Number of Autonomic activity (time) (C57BL/6 mice [1]; Experiment 1, end of 1st min to 4th min) | Blepharoptosis, “out-of-circle” ratio and shell temperature after reserpine (effect in words) (C57BL/6 mice [2]; 10 mg/kg intragastric 7 days) | Change in the shell temperature (ΔT ° C.) (C57BL/6 mice [2]; Experiment 1, 10 mg/kg intragastric 7 days, reserpine 4 mg/kg i.p., abdomen, two hours after reserpine, ±SD) | Degree of eye-closure (C57BL/6 mice [2]; Experiment 1, 10 mg/kg intragastric 7 days, reserpine 4 mg/kg i.p., ±SD) | Change in the shell temperature (T ° C.) (C57BL/6 mice [2]; [6]) | Degree of eye-closure (C57BL/6 mice [2]; [7]) | responders at 10 mg/kg (C57BL/6 mice [2]; Experiment 1, 10 mg/kg intragastric 7 days, reserpine 4 mg/kg i.p.) | responders at 10 mg/kg (C57BL/6 mice [2]; [8]) | Anti-depressive effect in animal experiments (in words) [3] | Effect on autonomic activity of mice (in words) (C57BL/6 mice [1]; 10 mg/kg intragastric, one week, compared with the solvent control group) | Number of Autonomic activity (time) (C57BL/6 mice [1]; Experiment 2) | Effect on immobility time in tail suspension test (in words) (C57BL/6 mice [4]) | Blepharoptosis, shell temperature and “out-of-circle” ratio compared with Compound I-1 (in words) (C57BL/6 mice [2]; 10 mg/kg, compared with I-1, p<0.05, p<0.01) | Improvement in eye closure and shell temperature compared with fluoxetine (in words) (C57BL/6 mice [2]; 10 mg/kg, compared with fluoxetine, p<0.05) | Improving akinesia, blepharoptosis and shell temperature: ranking among the tested compounds (in words) (C57BL/6 mice [2]; 10 mg/kg, within the experiment) | Immobility time in the forced swimming test in mice(s) (C57BL/6 mice [5]; 10 mg/kg intragastric once daily for 7 days, 30 min after last administration, end of 2nd min to 6th min) | Effect on immobility time in the forced swimming test (in words) (C57BL/6 mice [5]; within the dosage range (5-10 mg/kg), compared with the solvent control group) | Anti-depression effect compared with the pharmacologic effect of I-1 (in words) (mice)
1 | COc1cc(/C=C/C(=O)NCC(C)C)cc2c1OCO2 [Compound I-1, N-isobutyl-5′-methoxy-3′,4′-methylenedioxy cinnamamide] | 113.92 ± 14.24 time | improved significantly; also recorded: remarkably improve | 2.05 ± 0.24 °C | 2.67 ± 0.89 | 27.80 ± 0.61 °C | 2.91 ± 0.75 | 17% | 10% | significant anti-depressive effect |  |  |  |  |  |  |  |  | 
2 | O=C(c1cc2c(c(C(F)(F)F)c1)OCO2)N1CCCCC1 [Compound I-13, 1-(5-trifluoromethyl-3,4-methylenedioxybenzoyl)-piperidine] |  | remarkably improve; also recorded: antagonizing the decrease of shell temperature, akinesia and improving the degree of eye closure |  |  | 30.20 ± 0.95 °C | 0.90 ± 0.88 |  | 70% |  | had no effect | 87.40 ± 22.39 time | reduce the immobility time of the mice in tail suspension test significantly; also recorded: significantly shorten the immobility time | significantly improved effect | better effect to a certain degree | better effects | 76.00 ± 32.32 s | shortening the immobility time; also recorded: shorten the immobility time | increased to some degree
